According to ChEMBL document CHEMBL3232845 (Bioorg Med Chem Lett, 2014):

How the values were obtained:
[1] = biological target: Serine/threonine-protein kinase DCLK2 (Homo sapiens) (UniProt Q8N568); test: Inhibition of human DCAMKL2 assessed as enzyme activity at 1 uM relative to control; parameters: scale not given: the % may be the effect or the level left
[2] = biological target: AMP-activated protein kinase (AMPK) alpha-1/beta-1/gamma-1 (Homo sapiens) (UniProt P54619+Q9Y478+Q13131); test: Inhibition of human AMPKA1/B1/G1 assessed as enzyme activity at 1 uM relative to control; assay type: protein-complex assay; parameters: scale not given: the % may be the effect or the level left
[3] = biological target: Ribosomal protein S6 kinase alpha-6 (Homo sapiens) (UniProt Q9UK32); test: Inhibition of human Rsk4 assessed as enzyme activity at 1 uM relative to control; parameters: scale not given: the % may be the effect or the level left
[4] = biological target: Inhibitor of nuclear factor kappa-B kinase subunit alpha (Homo sapiens) (UniProt O15111); test: Inhibition of human IKKalpha assessed as enzyme activity at 1 uM relative to control; parameters: scale not given: the % may be the effect or the level left
[5] = biological target: Vascular endothelial growth factor receptor 3 (Homo sapiens) (UniProt P35916); test: Inhibition of human Flt4 assessed as enzyme activity at 1 uM relative to control; parameters: scale not given: the % may be the effect or the level left
[6] = biological target: Tyrosine-protein kinase FRK (Homo sapiens) (UniProt P42685); test: Inhibition of human PTK5 assessed as enzyme activity at 1 uM relative to control; parameters: scale not given: the % may be the effect or the level left
[7] = Apparent permeability of the compound from apical to basolateral direction in pig LLC-PK1 cells; assay type: ADME, cell-based, Sus scrofa
[8] = biological target: Protein kinase C beta type (Homo sapiens) (UniProt P05771); test: Inhibition of human PKCbeta2 assessed as enzyme activity at 1 uM relative to control; parameters: scale not given: the % may be the effect or the level left
[9] = biological target: Ephrin type-B receptor 2 (Homo sapiens) (UniProt P29323); test: Inhibition of human EphB2 assessed as enzyme activity at 1 uM relative to control; parameters: scale not given: the % may be the effect or the level left
[10] = biological target: Serine/threonine-protein kinase VRK2 (Homo sapiens) (UniProt Q86Y07); test: Inhibition of human VRK2 assessed as enzyme activity at 1 uM relative to control; parameters: scale not given: the % may be the effect or the level left
[11] = biological target: Serine/threonine-protein kinase mTOR (Homo sapiens) (UniProt P42345); test: Inhibition of human mTOR assessed as enzyme activity at 1 uM relative to control; parameters: scale not given: the % may be the effect or the level left
[12] = biological target: Tyrosine-protein kinase CSK (Homo sapiens) (UniProt P41240); test: Inhibition of human CSK assessed as enzyme activity at 1 uM relative to control; parameters: scale not given: the % may be the effect or the level left
[13] = biological target: Tyrosine-protein kinase Lyn (Homo sapiens) (UniProt P07948); test: Inhibition of human Lyn assessed as enzyme activity at 1 uM relative to control; parameters: scale not given: the % may be the effect or the level left
[14] = biological target: Insulin-like growth factor 1 receptor (Homo sapiens) (UniProt P08069); test: Inhibition of human IGF-1R assessed as enzyme activity at 1 uM relative to control; parameters: scale not given: the % may be the effect or the level left
[15] = biological target: Serine/threonine-protein kinase MRCK alpha (Homo sapiens) (UniProt Q5VT25); test: Inhibition of human MRCKalpha assessed as enzyme activity at 1 uM relative to control; parameters: scale not given: the % may be the effect or the level left
[16] = biological target: MAP kinase-activated protein kinase 3 (Homo sapiens) (UniProt Q16644); test: Inhibition of human MAPKAP-K3 assessed as enzyme activity at 1 uM relative to control; parameters: scale not given: the % may be the effect or the level left
[17] = biological target: Platelet-derived growth factor receptor beta (Homo sapiens) (UniProt P09619); test: Inhibition of human PDGFRbeta assessed as enzyme activity at 1 uM relative to control; parameters: scale not given: the % may be the effect or the level left
[18] = biological target: Protein kinase C delta type (Homo sapiens) (UniProt Q05655); test: Inhibition of human PKCdelta assessed as enzyme activity at 1 uM relative to control; parameters: scale not given: the % may be the effect or the level left
[19] = AUC in mouse at 30 mg/kg, po; assay type: ADME, organism-based; parameters: dose 30 mg/kg, route oral; conditions: plasma
[20] = biological target: Serine/threonine-protein kinase ULK2 (Homo sapiens) (UniProt Q8IYT8); test: Inhibition of human ULK2 assessed as enzyme activity at 1 uM relative to control; parameters: scale not given: the % may be the effect or the level left
[21] = biological target: Serine/threonine-protein kinase WNK2 (Homo sapiens) (UniProt Q9Y3S1); test: Inhibition of human WNK2 assessed as enzyme activity at 1 uM relative to control; parameters: scale not given: the % may be the effect or the level left
[22] = biological target: Focal adhesion kinase 1 (Homo sapiens) (UniProt Q05397); test: Inhibition of human FAK assessed as enzyme activity at 1 uM relative to control; parameters: scale not given: the % may be the effect or the level left
[23] = biological target: Angiopoietin-1 receptor (Homo sapiens) (UniProt Q02763); test: Inhibition of human Tie2 assessed as enzyme activity at 1 uM relative to control; parameters: scale not given: the % may be the effect or the level left
[24] = biological target: Eukaryotic elongation factor 2 kinase (Homo sapiens) (UniProt O00418); test: Inhibition of human eEF-2K assessed as enzyme activity at 1 uM relative to control; parameters: scale not given: the % may be the effect or the level left
[25] = Antitumor activity against human LOX cells expressing B-Raf V600E mutant xenografted in nude mouse assessed as tumor growth inhibition at 30 mg/kg qd for 4 days measured on day 3; assay type: functional; conditions: read-out: TGI
[26] = biological target: RAC-beta serine/threonine-protein kinase (Homo sapiens) (UniProt P31751); test: Inhibition of human AKT2 assessed as enzyme activity at 1 uM relative to control; parameters: scale not given: the % may be the effect or the level left
[27] = biological target: Serine/threonine-protein kinase BRSK2 (Homo sapiens) (UniProt Q8IWQ3); test: Inhibition of human BrSK2 assessed as enzyme activity at 1 uM relative to control; parameters: scale not given: the % may be the effect or the level left
[28] = biological target: NUAK family SNF1-like kinase 1 (Homo sapiens) (UniProt O60285); test: Inhibition of human ARK5 assessed as enzyme activity at 1 uM relative to control; parameters: scale not given: the % may be the effect or the level left
[29] = biological target: Ribosomal protein S6 kinase alpha-4 (Homo sapiens) (UniProt O75676); test: Inhibition of human MSK2 assessed as enzyme activity at 1 uM relative to control; parameters: scale not given: the % may be the effect or the level left
[30] = Antitumor activity against human LOX cells expressing B-Raf V600E mutant xenografted in nude mouse assessed as tumor growth inhibition at 30 mg/kg qd for 4 days measured on day 5; assay type: functional; conditions: read-out: TGI
[31] = biological target: Serine/threonine-protein kinase 24 (Homo sapiens) (UniProt Q9Y6E0); test: Inhibition of human MST3 assessed as enzyme activity at 1 uM relative to control; parameters: scale not given: the % may be the effect or the level left
[32] = biological target: CDK2/Cyclin A2 (Homo sapiens) (UniProt P24941+P20248); test: Inhibition of human CDK2/cyclinA assessed as enzyme activity at 1 uM relative to control; assay type: protein-complex assay; parameters: scale not given: the % may be the effect or the level left
[33] = biological target: Protein kinase C epsilon type (Homo sapiens) (UniProt Q02156); test: Inhibition of human PKCepsilon assessed as enzyme activity at 1 uM relative to control; parameters: scale not given: the % may be the effect or the level left
[34] = biological target: Serine/threonine-protein kinase PAK 2 (Homo sapiens) (UniProt Q13177); test: Inhibition of human PAK2 assessed as enzyme activity at 1 uM relative to control; parameters: scale not given: the % may be the effect or the level left
[35] = biological target: Mitogen-activated protein kinase 13 (Homo sapiens) (UniProt O15264); test: Inhibition of human p38delta assessed as enzyme activity at 1 uM relative to control; parameters: scale not given: the % may be the effect or the level left
[36] = biological target: Tyrosine-protein kinase Fer (Homo sapiens) (UniProt P16591); test: Inhibition of human Fer assessed as enzyme activity at 1 uM relative to control; parameters: scale not given: the % may be the effect or the level left
[37] = biological target: Protein-tyrosine kinase 6 (Homo sapiens) (UniProt Q13882); test: Inhibition of human PTK6 assessed as enzyme activity at 1 uM relative to control; parameters: scale not given: the % may be the effect or the level left
[38] = biological target: Tyrosine-protein kinase TXK (Homo sapiens) (UniProt P42681); test: Inhibition of human Txk assessed as enzyme activity at 1 uM relative to control; parameters: scale not given: the % may be the effect or the level left
Chain of Tyrosine-protein kinase TXK (Homo sapiens) (P42681 whole entry): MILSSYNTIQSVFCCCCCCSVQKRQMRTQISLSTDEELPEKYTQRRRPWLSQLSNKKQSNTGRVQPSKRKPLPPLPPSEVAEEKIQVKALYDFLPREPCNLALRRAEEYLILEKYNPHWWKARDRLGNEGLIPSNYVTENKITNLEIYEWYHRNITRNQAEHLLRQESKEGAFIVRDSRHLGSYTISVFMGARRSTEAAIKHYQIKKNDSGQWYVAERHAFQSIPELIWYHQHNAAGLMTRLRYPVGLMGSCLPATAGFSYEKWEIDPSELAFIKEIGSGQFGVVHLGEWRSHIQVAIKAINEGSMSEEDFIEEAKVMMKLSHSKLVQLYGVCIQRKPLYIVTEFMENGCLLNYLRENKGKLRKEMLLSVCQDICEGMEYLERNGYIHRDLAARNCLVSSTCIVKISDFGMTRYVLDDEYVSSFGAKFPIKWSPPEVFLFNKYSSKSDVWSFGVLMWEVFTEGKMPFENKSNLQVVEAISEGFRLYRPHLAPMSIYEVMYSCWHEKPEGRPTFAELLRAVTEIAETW

Chain of Ribosomal protein S6 kinase alpha-6 (Homo sapiens) (Q9UK32 whole entry, looked up): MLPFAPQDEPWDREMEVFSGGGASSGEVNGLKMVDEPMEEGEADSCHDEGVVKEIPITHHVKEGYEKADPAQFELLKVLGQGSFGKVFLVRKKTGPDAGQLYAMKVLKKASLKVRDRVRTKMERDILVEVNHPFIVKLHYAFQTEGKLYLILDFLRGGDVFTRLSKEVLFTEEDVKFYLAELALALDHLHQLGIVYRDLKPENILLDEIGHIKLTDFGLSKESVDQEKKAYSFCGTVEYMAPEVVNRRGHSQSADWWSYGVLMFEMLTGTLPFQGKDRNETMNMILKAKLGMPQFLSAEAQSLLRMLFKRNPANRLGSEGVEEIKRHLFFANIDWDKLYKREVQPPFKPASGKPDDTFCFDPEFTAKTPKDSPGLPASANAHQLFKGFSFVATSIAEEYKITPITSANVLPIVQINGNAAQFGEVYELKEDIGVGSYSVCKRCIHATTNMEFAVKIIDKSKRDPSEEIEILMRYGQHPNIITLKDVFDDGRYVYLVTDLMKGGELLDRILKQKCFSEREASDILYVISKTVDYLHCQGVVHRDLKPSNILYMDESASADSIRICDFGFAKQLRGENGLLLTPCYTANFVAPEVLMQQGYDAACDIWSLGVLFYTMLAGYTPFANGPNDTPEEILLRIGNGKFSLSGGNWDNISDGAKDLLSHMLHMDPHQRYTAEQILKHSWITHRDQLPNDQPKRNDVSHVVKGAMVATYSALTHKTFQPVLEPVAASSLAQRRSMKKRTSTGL
Chain of Serine/threonine-protein kinase PAK 2 (Homo sapiens) (Q13177 whole entry): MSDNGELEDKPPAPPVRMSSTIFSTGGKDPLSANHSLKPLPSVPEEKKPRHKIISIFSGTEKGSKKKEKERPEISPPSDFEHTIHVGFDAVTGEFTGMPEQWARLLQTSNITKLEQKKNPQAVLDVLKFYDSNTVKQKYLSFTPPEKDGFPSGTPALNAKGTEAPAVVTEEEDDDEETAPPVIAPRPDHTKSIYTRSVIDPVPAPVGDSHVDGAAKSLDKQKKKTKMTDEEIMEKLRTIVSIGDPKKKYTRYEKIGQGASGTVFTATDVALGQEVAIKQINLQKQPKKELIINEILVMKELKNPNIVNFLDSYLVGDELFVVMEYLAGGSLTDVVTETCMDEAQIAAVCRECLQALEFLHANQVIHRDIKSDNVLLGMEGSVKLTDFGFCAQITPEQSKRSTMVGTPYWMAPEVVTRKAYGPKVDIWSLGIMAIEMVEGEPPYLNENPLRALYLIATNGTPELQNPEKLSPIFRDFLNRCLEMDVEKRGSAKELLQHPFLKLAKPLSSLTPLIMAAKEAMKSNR
Chain of Serine/threonine-protein kinase BRSK2 (Homo sapiens) (Q8IWQ3 whole entry): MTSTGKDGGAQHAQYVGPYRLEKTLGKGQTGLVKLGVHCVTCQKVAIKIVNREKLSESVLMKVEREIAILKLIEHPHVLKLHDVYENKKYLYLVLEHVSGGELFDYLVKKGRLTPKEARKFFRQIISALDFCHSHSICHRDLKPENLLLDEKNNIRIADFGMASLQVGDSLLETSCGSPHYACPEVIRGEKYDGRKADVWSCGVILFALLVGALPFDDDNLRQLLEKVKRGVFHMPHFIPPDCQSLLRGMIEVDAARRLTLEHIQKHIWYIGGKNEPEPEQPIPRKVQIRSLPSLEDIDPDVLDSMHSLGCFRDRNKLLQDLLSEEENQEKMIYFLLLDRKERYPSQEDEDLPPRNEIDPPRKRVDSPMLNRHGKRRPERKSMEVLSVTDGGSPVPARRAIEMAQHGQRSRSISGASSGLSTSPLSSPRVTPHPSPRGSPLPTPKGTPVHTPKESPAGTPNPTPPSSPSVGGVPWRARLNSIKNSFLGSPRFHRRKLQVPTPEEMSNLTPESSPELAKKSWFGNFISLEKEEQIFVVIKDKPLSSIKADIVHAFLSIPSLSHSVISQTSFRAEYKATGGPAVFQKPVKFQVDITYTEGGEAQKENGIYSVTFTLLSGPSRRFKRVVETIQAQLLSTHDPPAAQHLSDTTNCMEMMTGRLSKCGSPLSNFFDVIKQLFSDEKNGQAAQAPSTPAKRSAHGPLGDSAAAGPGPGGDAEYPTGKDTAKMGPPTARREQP
Chain of Vascular endothelial growth factor receptor 3 (Homo sapiens) (P35916 whole entry): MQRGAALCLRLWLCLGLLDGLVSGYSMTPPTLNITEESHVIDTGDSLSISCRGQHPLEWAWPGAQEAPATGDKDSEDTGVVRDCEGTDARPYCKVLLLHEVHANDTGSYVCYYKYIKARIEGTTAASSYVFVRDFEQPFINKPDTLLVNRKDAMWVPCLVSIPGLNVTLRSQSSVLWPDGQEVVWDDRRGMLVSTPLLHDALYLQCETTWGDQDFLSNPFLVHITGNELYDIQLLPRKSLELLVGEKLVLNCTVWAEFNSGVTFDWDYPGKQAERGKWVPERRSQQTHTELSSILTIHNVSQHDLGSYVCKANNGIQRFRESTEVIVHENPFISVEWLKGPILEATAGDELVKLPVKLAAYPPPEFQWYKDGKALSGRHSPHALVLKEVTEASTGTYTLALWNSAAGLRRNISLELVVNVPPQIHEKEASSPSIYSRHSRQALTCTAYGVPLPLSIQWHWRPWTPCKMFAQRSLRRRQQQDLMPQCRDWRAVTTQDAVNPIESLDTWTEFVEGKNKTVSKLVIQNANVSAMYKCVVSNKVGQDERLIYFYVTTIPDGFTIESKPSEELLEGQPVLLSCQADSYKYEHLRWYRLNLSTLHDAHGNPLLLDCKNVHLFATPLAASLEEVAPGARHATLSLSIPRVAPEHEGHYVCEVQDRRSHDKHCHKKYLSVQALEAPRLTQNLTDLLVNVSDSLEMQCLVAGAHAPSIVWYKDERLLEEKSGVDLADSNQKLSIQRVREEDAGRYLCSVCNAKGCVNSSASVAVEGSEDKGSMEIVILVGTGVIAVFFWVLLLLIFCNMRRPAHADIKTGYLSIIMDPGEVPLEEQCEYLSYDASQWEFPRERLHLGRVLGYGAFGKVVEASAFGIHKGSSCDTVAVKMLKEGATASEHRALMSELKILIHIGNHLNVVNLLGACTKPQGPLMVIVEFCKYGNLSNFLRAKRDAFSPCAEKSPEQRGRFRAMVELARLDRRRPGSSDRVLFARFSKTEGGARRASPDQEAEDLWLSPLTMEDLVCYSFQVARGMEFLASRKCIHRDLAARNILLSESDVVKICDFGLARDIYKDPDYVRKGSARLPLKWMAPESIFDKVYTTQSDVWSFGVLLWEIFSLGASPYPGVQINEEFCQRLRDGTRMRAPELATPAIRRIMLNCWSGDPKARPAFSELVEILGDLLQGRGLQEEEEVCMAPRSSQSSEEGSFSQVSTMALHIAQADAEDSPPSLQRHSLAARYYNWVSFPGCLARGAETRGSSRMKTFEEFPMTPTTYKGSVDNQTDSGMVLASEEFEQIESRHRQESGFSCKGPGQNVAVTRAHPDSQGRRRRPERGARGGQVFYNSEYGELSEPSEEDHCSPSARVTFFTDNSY
Chain of Protein kinase C beta type (Homo sapiens) (P05771 2-671 limits assumed): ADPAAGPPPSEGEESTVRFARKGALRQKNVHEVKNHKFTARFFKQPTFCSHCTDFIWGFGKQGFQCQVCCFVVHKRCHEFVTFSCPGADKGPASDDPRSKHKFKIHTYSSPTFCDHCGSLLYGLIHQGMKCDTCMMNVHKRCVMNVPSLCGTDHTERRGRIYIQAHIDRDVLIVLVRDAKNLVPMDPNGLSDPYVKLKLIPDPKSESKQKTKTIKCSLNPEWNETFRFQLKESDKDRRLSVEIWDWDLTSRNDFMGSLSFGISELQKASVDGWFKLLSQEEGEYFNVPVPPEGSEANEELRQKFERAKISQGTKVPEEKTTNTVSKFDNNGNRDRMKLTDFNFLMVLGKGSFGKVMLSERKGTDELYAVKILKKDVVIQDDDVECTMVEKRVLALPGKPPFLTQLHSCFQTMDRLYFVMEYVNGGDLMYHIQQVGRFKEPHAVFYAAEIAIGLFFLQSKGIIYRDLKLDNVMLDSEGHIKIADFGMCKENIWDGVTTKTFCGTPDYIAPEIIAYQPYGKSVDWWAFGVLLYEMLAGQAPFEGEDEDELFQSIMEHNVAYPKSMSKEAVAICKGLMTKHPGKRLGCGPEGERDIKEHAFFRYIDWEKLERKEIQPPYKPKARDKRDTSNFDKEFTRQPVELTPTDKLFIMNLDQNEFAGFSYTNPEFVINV
Chain of Tyrosine-protein kinase CSK (Homo sapiens) (P41240 2-450 limits assumed): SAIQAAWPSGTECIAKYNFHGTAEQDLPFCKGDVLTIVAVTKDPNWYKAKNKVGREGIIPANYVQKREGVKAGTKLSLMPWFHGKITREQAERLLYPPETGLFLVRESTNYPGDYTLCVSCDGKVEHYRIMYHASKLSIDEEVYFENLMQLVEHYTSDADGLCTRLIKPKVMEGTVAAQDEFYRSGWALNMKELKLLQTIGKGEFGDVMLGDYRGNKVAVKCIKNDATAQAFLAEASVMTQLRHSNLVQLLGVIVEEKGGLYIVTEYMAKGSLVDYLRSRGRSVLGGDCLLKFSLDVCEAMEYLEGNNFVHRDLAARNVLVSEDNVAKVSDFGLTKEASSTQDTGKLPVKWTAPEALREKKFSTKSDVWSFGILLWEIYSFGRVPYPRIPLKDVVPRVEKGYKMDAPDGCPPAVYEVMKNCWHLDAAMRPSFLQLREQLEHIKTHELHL

**Q.** Which Activity [1] does the source give for `CCCS(=O)(=O)Nc1cccc(Nc2ccc3ncn(C)c(=O)c3c2)c1C#N` here?
**A.** The Activity was 148%.

**Q.** What about the Activity [2] of the same compound?
**A.** Its Activity is 95%.

**Q.** What about the Activity [3] of the same compound?
**A.** The Activity was 120%.

**Q.** And the Activity [4]?
**A.** Its Activity is 129%.

**Q.** What about the Activity [5] of the same compound?
**A.** Its Activity is 79.5%.

**Q.** And the Activity [6]?
**A.** Its Activity is 83.5%.

**Q.** What about the Papp A→B [7] of the same compound?
**A.** The Papp A→B was over 8 ×10⁻⁶ cm/s.

**Q.** What about the Activity [8] of the same compound?
**A.** The Activity was 100%.

**Q.** What about the Activity [9] of the same compound?
**A.** Its Activity is 94.5%.

**Q.** What about the Activity [10] of the same compound?
**A.** Its Activity is 102%.

**Q.** And the Activity [11]?
**A.** The Activity was 101%.

**Q.** And the Activity [12]?
**A.** Its Activity is 111%.

**Q.** And the Activity [13]?
**A.** Its Activity is 98%.

**Q.** And the Activity [14]?
**A.** The Activity was 108%.

**Q.** What about the Activity [15] of the same compound?
**A.** Its Activity is 127%.

**Q.** What about the Activity [16] of the same compound?
**A.** Its Activity is 121%.

**Q.** What about the Activity [17] of the same compound?
**A.** The Activity was 114%.

**Q.** And the Activity [18]?
**A.** Its Activity is 100%.

**Q.** And the AUC [19]?
**A.** The AUC was 483 µM·h.

**Q.** What about the Activity [20] of the same compound?
**A.** Its Activity is 99.5%.

**Q.** What about the Activity [21] of the same compound?
**A.** Its Activity is 100%.

**Q.** And the Activity [22]?
**A.** The Activity was 102%.

**Q.** And the Activity [23]?
**A.** Its Activity is 118%.

**Q.** What about the Activity [24] of the same compound?
**A.** Its Activity is 128%.

**Q.** And the inhibition in vivo at 30 mg/kg [25]?
**A.** The inhibition in vivo at 30 mg/kg was 65%.

**Q.** And the Activity [26]?
**A.** Its Activity is 154%.

**Q.** What about the Activity [27] of the same compound?
**A.** The Activity was 100%.

**Q.** And the Activity [28]?
**A.** The Activity was 109%.

**Q.** And the Activity [29]?
**A.** The Activity was 111%.

**Q.** What about the inhibition in vivo at 30 mg/kg [30] of the same compound?
**A.** Its inhibition in vivo at 30 mg/kg is 95%.

**Q.** What about the Activity [31] of the same compound?
**A.** Its Activity is 100%.

**Q.** And the Activity [32]?
**A.** The Activity was 98.5%.

**Q.** What about the Activity [33] of the same compound?
**A.** The Activity was 99.5%.

**Q.** And the Activity [34]?
**A.** Its Activity is 114%.

**Q.** And the Activity [35]?
**A.** Its Activity is 96%.

**Q.** What about the Activity [36] of the same compound?
**A.** The Activity was 114%.

**Q.** And the Activity [37]?
**A.** The Activity was 57.5%.

**Q.** And the Activity [38]?
**A.** Its Activity is 104%.
